Biological target: T1, ABCG2 (Homo sapiens, UniProt Q9UNQ0)
T1 construct: membrane vesicles of High Five insect cells
T1 sequence (Q9UNQ0 1-655): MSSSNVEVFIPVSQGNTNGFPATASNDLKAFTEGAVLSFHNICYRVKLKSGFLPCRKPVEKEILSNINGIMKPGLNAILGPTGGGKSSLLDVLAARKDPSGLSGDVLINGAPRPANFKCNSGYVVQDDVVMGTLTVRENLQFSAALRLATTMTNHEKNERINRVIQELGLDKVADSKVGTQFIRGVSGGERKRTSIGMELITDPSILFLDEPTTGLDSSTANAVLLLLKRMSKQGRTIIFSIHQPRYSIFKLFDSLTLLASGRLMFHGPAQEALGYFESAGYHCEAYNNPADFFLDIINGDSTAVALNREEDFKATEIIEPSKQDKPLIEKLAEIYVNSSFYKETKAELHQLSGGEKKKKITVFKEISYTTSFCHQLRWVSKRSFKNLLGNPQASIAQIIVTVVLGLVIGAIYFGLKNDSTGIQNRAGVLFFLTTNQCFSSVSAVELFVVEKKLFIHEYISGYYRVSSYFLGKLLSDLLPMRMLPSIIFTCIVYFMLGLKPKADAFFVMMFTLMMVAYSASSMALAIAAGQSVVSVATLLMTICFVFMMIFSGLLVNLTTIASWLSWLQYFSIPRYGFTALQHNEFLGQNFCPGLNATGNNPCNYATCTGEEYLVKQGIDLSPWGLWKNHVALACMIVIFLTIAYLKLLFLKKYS
Experiment: biochemical

C=CC(=O)Nc1cccc(Oc2nc(Nc3ccc(N4CCN(C)CC4)cc3)nc3ccsc23)c1 [olmutinib]
EC50: 2.2 µM

— article PMC6189370, “Olmutinib (BI1482694/HM61713), a Novel Epidermal Growth Factor Receptor Tyrosine Kinase Inhibitor, Reverses ABCG2-Mediated Multidrug Resistance in Cancer Cells” (Frontiers in Pharmacology, 2018)
